These are literature values, as cited in patent US20230345942A1, “CORONA VIRUS KILLING AGENT” (SANKEI CO., LTD., priority 2020, published 2023).

Data set [1] deals with bacteria, fungi.
Data set [2] has as its system Influenza. On the set-up: key: ◯ Effective; ∇ Low efficacy; ⊚ Effective even in the presence of organic matter.
Data set [3] has as its system Norovirus (alternative). On the set-up: key: ◯ Effective; ∇ Low efficacy; ⊚ Effective even in the presence of organic matter.
Data set [4] concerns Novel coronavirus. On the set-up: key: ◯ Effective; ∇ Low efficacy; ⊚ Effective even in the presence of organic matter.
The conditions of data set [5]: as qualified in the cell (undiluted solution / at usage concentration).
The test system of data set [6] is enveloped viruses.

Turning to `CCO` [Disinfecting ethanol, Ethanol], the Antibacterial/fungal activity entry in data set [1] is “Broad range”. The “Antiviral activity: Influenza” value in data set [2] is given as “◯”. Also, in data set [3], the “Antiviral activity: Norovirus (alternative)” value is on record as “∇”. Also, the “Antiviral activity: Novel coronavirus” value in data set [4] is “◯”. For the same compound, the Safety result in data set [5] is recorded as “Flammable”.

Turning to `OCl` [Sodium hypochlorite], in data set [1], the Antibacterial/fungal activity result is reported as “Broad range”. The “Antiviral activity: Influenza” value in data set [2] is on record as “◯”. Moreover, the “Antiviral activity: Norovirus (alternative)” value in data set [3] was “◯”. For the same compound, the “Antiviral activity: Novel coronavirus” value in data set [4] was “◯”. Besides, in data set [5], the Safety entry was “hazardous”.

Turning to `CCO` [alcohol], the “Concentration required for an inactivation effect on enveloped viruses” value in data set [6] is on record as ≥ 70 % (v/v).
